What was measured:
[1] = system: MBLs; settings: cited from earlier work
[2] = system: K. pneumoniae K66-45 (NDM-1); test: MIC determination of meropenem with zinc chelator at varying zinc concentrations in the medium (Example 31); type: cell-based, Klebsiella pneumoniae
Protocol: An experiment was conducted to determine the Minimal Inhibitory Concentration (MIC) of meropenem (MEM) in combination with the zinc chelator according to Example 26 of WO 2018/033719 at varying concentrations of zinc in the medium. The medium was a Mueller Hinton broth from Thermo Fischer. The zinc content was measured as 5.6 μM using ICP-MS. The concentration of zinc in the plasma of healthy animals has been determined to be close to this value. In infectious tissue, the zinc concentration is below the limit of detection (see, for example Bilinskaya et al., Am. Soc. For Microbiology (2020), 58, pages 1-8). Zinc sulfate was then added to this broth to obtain three further concentrations: 15.6 μM, 25.6 μM and 35.6 μM of zinc, keeping all other parameters constant.
As a model bacterial strain for this experiment, the MIC of MEM vs. K. pneumoniae K66-45 (NDM-1) was then determined in broth containing the four concentrations of zinc following the protocol given in Example 1. The EUCAST MIC value for MEM alone (EUCAST: standardization organization for MIC values of antibiotics) is 4-8 μM, meaning that if a bacterial strain is inhibited at lower concentrations than the MIC value, the bacterial strain is sensitive(S) to MEM. Correspondingly, if the bacterial strain is not inhibited at MIC or lower, the strain is resistant (R). If the inhibition is within the MIC range 4-8 μM, the resistance is intermediate (I).

[3] = system: clinically isolated gram-negative bacteria with MBL as a resistance mechanism; settings: cited from earlier work
[4] = system: NDM; settings: mouse models; relatively high doses required to reverse carbapenem resistance; cited from earlier work
[5] = system: MBL class IMP; settings: cited from earlier work
[6] = system: MBL-producers; settings: cited from earlier work

NC(=O)[C@@H]1CC[C@@H]2CN1C(=O)N2OS(=O)(=O)O [Avibactam, avibactam]
inhibitory activity against MBLs [1]: none of these β-lactamase inhibitors possess inhibitory activity against MBLs

CC1=C[C@@H]2CN(C(=O)N2OS(=O)(=O)O)[C@@H]1C(N)=O [ETX2514]
inhibitory activity against MBLs [1]: none of these β-lactamase inhibitors possess inhibitory activity against MBLs

C[C@@H](O)[C@H]1C(=O)N2C(C(=O)O)=C(S[C@@H]3CN[C@H](C(=O)N(C)C)C3)[C@H](C)[C@H]12 [Meropenem, meropenem, reference compound]
EUCAST MIC class for MEM alone ([2]; zinc concentration 5.6 μM): S (if a bacterial strain is inhibited at lower concentrations than the MIC value, the bacterial strain is sensitive(S) to MEM)
EUCAST MIC class for MEM alone ([2]; zinc concentration 35.6 μM): R (if the bacterial strain is not inhibited at MIC or lower, the strain is resistant (R))
sensitivity to meropenem alone ([3]; meropenem used alone, many clinical isolates with MBL): resistant to the antibiotic
effect of MEM in combination with the compound of Example 26 of WO 2018/033719 ([3]; same strains, sensitivity reinstated): inhibitory effect

N[C@H](CN[C@H](CN[C@@H](CC(=O)O)C(=O)O)C(=O)O)C(=O)O [aspergillomarasmine A]
in vivo activity [4]: in vivo activity in mouse models

NCCN[C@H]1CC[C@H](CC(=O)N[C@H]2Cc3cccc(C(=O)O)c3OB2O)CC1 [taniborbactam]
effect in combination with cefepime [5]: no effect
activity in combination with cefepime [6]: potent activity

O=C(O)C[C@@H]1CC[C@H](NC(=O)Cc2cccs2)B(O)O1 [vaborbactam]
inhibitory activity against MBLs [1]: none of these β-lactamase inhibitors possess inhibitory activity against MBLs

— patent US20260306526A1, “COMBINATION THERAPY FOR BACTERIAL INFECTIONS COMPRISING ZINC-CHELATOR, BETA-LACTAM ANTIBIOTIC AND SERINE BETA-LACTAMASE INHIBITOR” (priority 2023, published 2026)
